The numbers were not newly measured in article PMC7191262 (Molecular pharmaceutics, 2020), which cites them from elsewhere.

For series [1] the following is noted: cargo previously delivered by pHLIP.
The conditions of series [2]: pHLIP with no cargo; ref [33], [36], [39].
Where [3] appears, read: ref Moshnikova et al., 2013 (Ref [17]).

Like-named read-outs stand apart in the source and are kept apart here. *1 amine or outer side, *2 acyl side, *3 side chain or, on linkers, in order; H or OH if unused. Where a SMILES comes first, the peptide text is derived from it. Bridges are numbered along the chain shown (N, C = ends). [ ]: non-standard residue; d: D form. The star is where a group is joined. X1 = CN(C)c1ccc2c(c1)Oc1cc(N(C)C)ccc1C2=C1C=CC(=NC(=S)NC[C@](C)(O)C[C@H](N[*:1])C(=O)[*:2])C=C1C(=O)O; Trp(2-yl) = O=C([C@H](Cc1c([*:3])[nH]c2ccccc12)N[*:1])[*:2]; Dolaproine = CO[C@@H]([C@@H]1CCCN1)[C@@H](C)C(=O)O; Dil = CC[C@H](C)[C@H](NC)[C@@H](CC(=O)O)OC; cisHyp = O=C(O)[C@@H]1C[C@H](O)CN1; X2 = C[C@@H](N*)[C@@H](O)c1ccccc1; NMeV = CN[C@H](C(=O)O)C(C)C

As to Amanitin [Amanitin (SPDP linker)], the LogP/LogD in series [1] (setting [3]) was −0.2.
For the compound Amanitin [Amanitin (Lc-SMPT linker)], the LogP/LogD in series [1] (setting [3]) was 0.2.
As for `CC[C@H](C)[C@@H]([C@@H](CC(=O)N1CCC[C@H]1[C@H](OC)[C@@H](C)C(=O)N[C@H](C)[C@@H](O)c1ccccc1)OC)N(C)C(=O)[C@@H](NC(=O)[C@@H](NC)C(C)C)C(C)C` [Monomethyl Auristatin E] (H-[NMeV]V[Dil][Dolaproine]-X2), in series [1] (ref Burns et al., 2015 (Ref [21])), the LogP/LogD is reported as 2.2.
As to `C[C@@H]1NC(=O)[C@H](C[C@@](C)(O)CNC(=S)N=C2C=CC(=C3c4ccc(N(C)C)cc4Oc4cc(N(C)C)ccc43)C(C(=O)O)=C2)NC(=O)[C@@H]2Cc3c([nH]c4ccccc34)SC[C@H](NC(=O)[C@@H]([C@H](C)O)NC1=O)C(=O)N1C[C@@H](O)C[C@H]1C(=O)N[C@@H](C)C(=O)N2` [Phalloidin-TRITC] (cyclo(A[dT]C[cisHyp]A[Trp(2-yl)][X1]); thioether 3-6), in series [1] (ref Reshetnyak et al., 2006 (Ref [24])), the LogP/LogD was −0.05.
As for `CC[C@H](C)[C@@H]([C@@H](CC(=O)N1CCC[C@H]1[C@H](OC)[C@@H](C)C(=O)N[C@@H](Cc1ccccc1)C(=O)O)OC)N(C)C(=O)[C@@H](NC(=O)[C@@H](NC)C(C)C)C(C)C` [Monomethyl Auristatin F] (H-[NMeV]V[Dil][Dolaproine]F-OH), the LogP/LogD in series [1] (ref Burns et al., 2017 (Ref [20])) was 0.7.
Consider “GGEQNPIYWARYADWLFTTPLLLLDLALLVDADEGTC(NPys)G [pHLIP]”, for which the “characteristic time for insertion” value in series [2] is listed as ~ 40 seconds.
